Source: PubChem BioAssay (NCI)
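Five concentrations, 48 hours, 96-well plates. Abbreviation: GI50, concentration required for 50% inhibition of growth. TGI: concentration producing complete growth inhibition.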

Legend:
Test in all cases: inhibition of tumour cell growth, NCI panel, 48 h
CCRF-CEM leukemia = test system: CCRF-CEM leukemia
COLO 205 colon = test system: COLO 205 colon
HCC-2998 colon = test system: HCC-2998 colon
HOP-62 NSCLC = test system: HOP-62 NSCLC
HOP-92 NSCLC = test system: HOP-92 NSCLC
MOLT-4 leukemia = test system: MOLT-4 leukemia
OVCAR-8 ovarian = test system: OVCAR-8 ovarian
RXF 393 renal = test system: RXF 393 renal
SK-MEL-5 melanoma = test system: SK-MEL-5 melanoma
UACC-257 melanoma = test system: UACC-257 melanoma

Row | Compound | GI50 (CCRF-CEM leukemia) [µM] | TGI (CCRF-CEM leukemia) [µM] | GI50 (COLO 205 colon) [µM] | TGI (COLO 205 colon) [µM] | GI50 (HCC-2998 colon) [µM] | TGI (HCC-2998 colon) [µM] | GI50 (HOP-62 NSCLC) [µM] | TGI (HOP-62 NSCLC) [µM] | GI50 (HOP-92 NSCLC) [µM] | TGI (HOP-92 NSCLC) [µM] | GI50 (MOLT-4 leukemia) [µM] | TGI (MOLT-4 leukemia) [µM] | GI50 (OVCAR-8 ovarian) [µM] | TGI (OVCAR-8 ovarian) [µM] | GI50 (RXF 393 renal) [µM] | TGI (RXF 393 renal) [µM] | GI50 (SK-MEL-5 melanoma) [µM] | TGI (SK-MEL-5 melanoma) [µM] | GI50 (UACC-257 melanoma) [µM] | TGI (UACC-257 melanoma) [µM]
1 | COc1ccc(CNCCN2C(=O)c3ccc4c5c(ccc(c35)C2=O)C(=O)N(CCNCc2ccc(OC)c(OC)c2OC)C4=O)c(OC)c1OC | 0.273 | 50 | 0.0899 | 0.168 | 0.167 | 0.59 | 0.248 | 1.08 | 1.56 | 3.44 | 0.151 | 0.613 | 0.16 | 0.648 | 0.279 | 1.42 | 0.48 | 1.09 | 0.113 | 0.303
2 | C#CCN1C(=O)CN2C(Cl)(Cl)C2(c2ccccc2)c2cc(Cl)ccc21 (stereo not given) | – | > 100 | – | > 100 | – | > 100 | – | > 100 | – | > 100 | – | 57.4 | – | > 100 | – | > 100 | – | > 100 | – | > 100
